Test results as given in ChEMBL document CHEMBL4414628, “Engineering Fluorine into Verticillins (Epipolythiodioxopiperazine Alkaloids) via Precursor-Directed Biosynthesis” (J Nat Prod, 2019).

Tests used:
MDA-MB-231 = test: Antiproliferative activity against human MDA-MB-231 cells assessed as inhibition of cell growth incubated for 72 hrs by CellTiter 96 aqueous one solution assay; type: functional, cell-based; details: MDA-MB-231, 72 h
OVCAR-3 = test: Antiproliferative activity against human OVCAR3 cells assessed as inhibition of cell growth incubated for 72 hrs by CellTiter 96 aqueous one solution assay; type: functional, cell-based; details: OVCAR-3, 72 h
MDA-MB-435 = test: Antiproliferative activity against human MDA-MB-435 cells assessed as inhibition of cell growth incubated for 72 hrs by CellTiter 96 aqueous one solution assay; type: functional, cell-based; details: MDA-MB-435, 72 h
[1] = target: Histone-lysine N-methyltransferase 2A (Homo sapiens, UniProt Q03164); test: Inhibition of human recombinant MLL1 using [3H]S-adenosyl-methionine as substrate
Chain of Histone-lysine N-methyltransferase 2A (Q03164 1-2718 limits assumed): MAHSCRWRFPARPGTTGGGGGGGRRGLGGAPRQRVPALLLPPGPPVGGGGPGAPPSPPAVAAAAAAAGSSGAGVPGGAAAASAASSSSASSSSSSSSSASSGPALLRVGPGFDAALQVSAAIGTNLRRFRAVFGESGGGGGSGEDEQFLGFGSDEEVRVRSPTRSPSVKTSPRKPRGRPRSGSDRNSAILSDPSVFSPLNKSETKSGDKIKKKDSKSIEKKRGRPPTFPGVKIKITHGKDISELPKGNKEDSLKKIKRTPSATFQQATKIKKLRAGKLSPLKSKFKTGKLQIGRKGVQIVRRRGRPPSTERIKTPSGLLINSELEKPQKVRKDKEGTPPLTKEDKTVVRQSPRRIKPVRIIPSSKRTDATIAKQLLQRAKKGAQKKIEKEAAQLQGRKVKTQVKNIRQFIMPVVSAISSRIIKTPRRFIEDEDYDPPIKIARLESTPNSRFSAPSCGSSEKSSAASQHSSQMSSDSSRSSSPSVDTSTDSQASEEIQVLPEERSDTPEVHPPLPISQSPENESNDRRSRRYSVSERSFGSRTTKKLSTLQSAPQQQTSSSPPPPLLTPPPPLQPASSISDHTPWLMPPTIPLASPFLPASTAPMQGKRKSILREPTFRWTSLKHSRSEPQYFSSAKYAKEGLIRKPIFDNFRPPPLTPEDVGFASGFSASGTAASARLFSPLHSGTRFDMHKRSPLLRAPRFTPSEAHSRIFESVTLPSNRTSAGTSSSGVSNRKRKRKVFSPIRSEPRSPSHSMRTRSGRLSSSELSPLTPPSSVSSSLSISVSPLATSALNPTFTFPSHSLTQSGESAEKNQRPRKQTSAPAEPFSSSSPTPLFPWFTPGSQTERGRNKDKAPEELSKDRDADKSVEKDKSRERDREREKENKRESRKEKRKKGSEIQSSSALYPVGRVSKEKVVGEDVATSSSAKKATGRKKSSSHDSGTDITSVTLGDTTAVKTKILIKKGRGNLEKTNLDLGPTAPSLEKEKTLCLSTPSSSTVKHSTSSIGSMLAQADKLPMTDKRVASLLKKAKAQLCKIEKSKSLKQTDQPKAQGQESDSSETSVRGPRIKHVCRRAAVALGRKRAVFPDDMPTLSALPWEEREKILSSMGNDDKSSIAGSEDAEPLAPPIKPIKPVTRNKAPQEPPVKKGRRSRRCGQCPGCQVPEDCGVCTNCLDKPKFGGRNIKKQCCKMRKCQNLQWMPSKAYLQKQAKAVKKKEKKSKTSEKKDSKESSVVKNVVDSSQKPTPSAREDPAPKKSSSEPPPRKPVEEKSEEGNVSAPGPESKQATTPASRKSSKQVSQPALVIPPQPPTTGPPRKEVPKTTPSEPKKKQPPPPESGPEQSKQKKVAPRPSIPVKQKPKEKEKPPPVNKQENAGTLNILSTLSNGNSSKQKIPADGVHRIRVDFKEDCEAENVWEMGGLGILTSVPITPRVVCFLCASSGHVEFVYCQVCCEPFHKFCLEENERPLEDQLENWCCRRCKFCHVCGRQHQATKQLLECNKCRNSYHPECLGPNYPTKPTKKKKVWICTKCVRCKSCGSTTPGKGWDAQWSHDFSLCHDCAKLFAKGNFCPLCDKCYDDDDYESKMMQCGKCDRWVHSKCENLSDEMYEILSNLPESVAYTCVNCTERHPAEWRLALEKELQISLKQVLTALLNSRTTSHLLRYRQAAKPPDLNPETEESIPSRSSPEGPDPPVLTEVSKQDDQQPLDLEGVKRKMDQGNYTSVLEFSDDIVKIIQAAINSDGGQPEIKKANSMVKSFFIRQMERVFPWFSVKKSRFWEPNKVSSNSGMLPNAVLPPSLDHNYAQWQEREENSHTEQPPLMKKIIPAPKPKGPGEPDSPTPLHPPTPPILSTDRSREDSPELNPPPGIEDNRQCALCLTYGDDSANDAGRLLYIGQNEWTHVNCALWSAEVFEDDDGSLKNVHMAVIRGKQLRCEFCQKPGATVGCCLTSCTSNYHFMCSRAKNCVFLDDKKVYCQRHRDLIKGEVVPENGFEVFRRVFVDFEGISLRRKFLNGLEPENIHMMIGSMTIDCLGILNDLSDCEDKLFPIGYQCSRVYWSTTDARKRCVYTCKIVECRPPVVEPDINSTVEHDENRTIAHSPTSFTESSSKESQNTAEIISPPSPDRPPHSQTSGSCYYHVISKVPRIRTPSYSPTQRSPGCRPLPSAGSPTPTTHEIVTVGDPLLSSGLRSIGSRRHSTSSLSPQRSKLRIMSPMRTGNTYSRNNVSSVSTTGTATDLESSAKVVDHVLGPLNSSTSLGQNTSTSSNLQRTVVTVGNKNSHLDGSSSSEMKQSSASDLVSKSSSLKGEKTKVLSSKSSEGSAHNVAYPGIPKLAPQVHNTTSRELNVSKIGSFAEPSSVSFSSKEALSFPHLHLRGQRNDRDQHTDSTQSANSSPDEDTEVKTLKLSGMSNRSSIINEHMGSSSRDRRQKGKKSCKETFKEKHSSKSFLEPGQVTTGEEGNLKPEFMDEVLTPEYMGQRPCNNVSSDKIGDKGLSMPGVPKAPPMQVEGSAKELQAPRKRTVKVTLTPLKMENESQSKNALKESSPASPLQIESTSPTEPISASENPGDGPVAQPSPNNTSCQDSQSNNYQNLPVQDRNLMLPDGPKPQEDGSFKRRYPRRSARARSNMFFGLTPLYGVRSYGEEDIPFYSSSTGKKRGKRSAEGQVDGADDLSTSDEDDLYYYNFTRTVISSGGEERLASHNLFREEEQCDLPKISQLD
Chain of Histone-lysine N-methyltransferase 2A (Q03164 2719-3969 limits assumed): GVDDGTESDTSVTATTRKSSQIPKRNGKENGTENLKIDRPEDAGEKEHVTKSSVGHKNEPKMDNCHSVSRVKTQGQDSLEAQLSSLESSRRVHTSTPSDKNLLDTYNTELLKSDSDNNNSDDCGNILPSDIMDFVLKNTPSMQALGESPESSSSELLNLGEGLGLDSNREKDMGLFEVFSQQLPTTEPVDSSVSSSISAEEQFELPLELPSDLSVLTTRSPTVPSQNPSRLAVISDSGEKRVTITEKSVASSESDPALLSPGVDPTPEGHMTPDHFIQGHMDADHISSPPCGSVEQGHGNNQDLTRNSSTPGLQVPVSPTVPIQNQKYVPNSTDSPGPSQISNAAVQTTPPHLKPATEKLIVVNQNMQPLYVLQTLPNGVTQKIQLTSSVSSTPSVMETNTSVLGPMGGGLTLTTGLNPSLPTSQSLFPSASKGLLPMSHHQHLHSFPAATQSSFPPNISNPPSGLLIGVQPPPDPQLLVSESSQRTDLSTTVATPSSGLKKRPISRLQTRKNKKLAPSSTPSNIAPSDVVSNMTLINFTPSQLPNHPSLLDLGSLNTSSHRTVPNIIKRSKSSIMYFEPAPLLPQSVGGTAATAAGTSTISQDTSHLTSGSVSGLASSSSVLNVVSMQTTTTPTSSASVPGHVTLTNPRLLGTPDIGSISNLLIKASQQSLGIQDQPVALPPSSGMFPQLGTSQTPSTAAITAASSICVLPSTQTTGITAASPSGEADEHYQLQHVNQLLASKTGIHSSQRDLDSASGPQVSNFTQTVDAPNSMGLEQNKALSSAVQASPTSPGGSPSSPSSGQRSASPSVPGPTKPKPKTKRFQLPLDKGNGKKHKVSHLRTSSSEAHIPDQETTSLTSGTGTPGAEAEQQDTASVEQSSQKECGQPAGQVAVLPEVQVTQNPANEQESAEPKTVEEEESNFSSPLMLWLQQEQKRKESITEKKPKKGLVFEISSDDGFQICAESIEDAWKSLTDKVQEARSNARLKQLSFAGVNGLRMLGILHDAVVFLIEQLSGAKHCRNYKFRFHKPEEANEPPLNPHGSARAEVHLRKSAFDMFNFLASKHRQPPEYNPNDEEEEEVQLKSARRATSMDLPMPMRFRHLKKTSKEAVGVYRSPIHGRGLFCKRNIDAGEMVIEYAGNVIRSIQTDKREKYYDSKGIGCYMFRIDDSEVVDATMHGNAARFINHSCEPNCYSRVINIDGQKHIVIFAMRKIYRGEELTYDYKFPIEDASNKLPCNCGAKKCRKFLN

Row | IC50 (MDA-MB-231) | IC50 (OVCAR-3) | IC50 (MDA-MB-435) | SMILES | IC50 [1]
1 | 46 nM | 39 nM | 49 nM | CC[C@@]12SS[C@]3(C(=O)N1C)[C@@H](O)[C@]1([C@@]45c6cc(F)ccc6N[C@@H]4N4C(=O)[C@]6(CC)SS[C@]4(C(=O)N6C)[C@H]5O)c4ccccc4N[C@@H]1N3C2=O | –
2 | 840 nM | 920 nM | 830 nM | CC[C@@]12SS[C@]3(C(=O)N1C)[C@@H](O)[C@]1([C@@]45c6cc(F)ccc6N[C@@H]4N4C(=O)[C@]6(CC)SS[C@]4(C(=O)N6C)[C@H]5O)c4cc(F)ccc4N[C@@H]1N3C2=O | –
3 | 22 nM | 30 nM | 30 nM | CC[C@@]12SS[C@]3(C(=O)N1C)[C@@H](O)[C@]1([C@@]45c6ccccc6N[C@@H]4N4C(=O)[C@]6(C)SS[C@]4(C(=O)N6C)[C@H]5O)c4ccccc4N[C@@H]1N3C2=O | –
4 | 59 nM | 75 nM | 65 nM | CN1C(=O)[C@]23SS[C@@]1(C)C(=O)N2[C@H]1Nc2ccc(F)cc2[C@@]1([C@@]12c4cc(F)ccc4N[C@@H]1N1C(=O)[C@]4(C)SS[C@]1(C(=O)N4C)[C@H]2O)[C@@H]3O | –
5 | 70 nM | 100 nM | 72 nM | CC[C@@]12SS[C@]3(C(=O)N1C)[C@@H](O)[C@]1([C@@]45c6cc(F)ccc6N[C@@H]4N4C(=O)[C@]6(C)SS[C@]4(C(=O)N6C)[C@H]5O)c4ccccc4N[C@@H]1N3C2=O | –
6 | 37 nM | 37 nM | 39 nM | CC[C@@]12SS[C@]3(C(=O)N1C)[C@@H](O)[C@]1([C@@]45c6ccccc6N[C@@H]4N4C(=O)[C@]6(C)SS[C@]4(C(=O)N6C)[C@H]5O)c4cc(F)ccc4N[C@@H]1N3C2=O | –
7 | 71 nM | 100 nM | 88 nM | CC[C@@]12SS[C@]3(C(=O)N1C)[C@@H](O)[C@]1([C@@]45c6ccccc6N[C@@H]4N4C(=O)[C@]6(CC)SS[C@]4(C(=O)N6C)[C@H]5O)c4ccccc4N[C@@H]1N3C2=O | –
8 | 110 nM | 180 nM | 130 nM | CC[C@@]12SS[C@]3(C(=O)N1C)[C@@H](O)[C@]1([C@@]45c6cc(F)ccc6N[C@@H]4N4C(=O)[C@]6(C)SS[C@]4(C(=O)N6C)[C@H]5O)c4cc(F)ccc4N[C@@H]1N3C2=O | –
9 | 230 nM | 180 nM | 240 nM | CN1C(=O)[C@]23SS[C@@]1(C)C(=O)N2[C@H]1Nc2ccccc2[C@@]1([C@@]12c4cc(F)ccc4N[C@@H]1N1C(=O)[C@]4(C)SS[C@]1(C(=O)N4C)[C@H]2O)[C@@H]3O | –
10 | 170 nM | 5 nM | 0.4 nM | CC(=O)O[C@H]1C(=O)[C@@]2(C)[C@H]([C@H](OC(=O)c3ccccc3)[C@]3(O)C[C@H](OC(=O)[C@H](O)[C@@H](NC(=O)c4ccccc4)c4ccccc4)C(C)=C1C3(C)C)[C@]1(OC(C)=O)CO[C@@H]1C[C@@H]2O [PACLITAXEL] | –

Row | SMILES | IC50 (MDA-MB-231) | IC50 (OVCAR-3) | IC50 (MDA-MB-435) | IC50 [1]
11 | CN1C(=O)[C@]23SS[C@@]1(C)C(=O)N2[C@H]1Nc2ccccc2[C@@]1([C@@]12c4ccccc4N[C@@H]1N1C(=O)[C@]4(C)SS[C@]1(C(=O)N4C)[C@H]2O)[C@@H]3O | 43 nM | 37 nM | 37 nM | 800 nM
